Source: ChEMBL document CHEMBL5236559 (J Med Chem, 2021)

Key:
Type in all cases: functional, cell-based
HeLa = experiment: Cytotoxicity against human HeLa cells assessed as reduction in cell viability incubated for 48 hrs by MTT assay
SMMC-7721 = experiment: Cytotoxicity against human SMMC-7721 cells assessed as reduction in cell viability incubated for 48 hrs by MTT assay; conditions: SMMC-7721, 48 h
HepG2 = experiment: Cytotoxicity against human HepG2 cells assessed as reduction in cell viability incubated for 48 hrs by MTT assay; conditions: HepG2, 48 h
HL-60 = experiment: Cytotoxicity against human HL-60 cells assessed as reduction in cell viability incubated for 48 hrs by MTT assay; conditions: HL-60, 48 h

Row | Compound | IC50 (HeLa) | IC50 (SMMC-7721) | IC50 (HepG2) | IC50 (HL-60)
1 | NCCCCCC(=O)Nc1cccc([As]2SCCCS2)c1 | > 10 µM | > 10 µM | 5.48 µM | 1.51 µM
2 | NCCCCCC(=O)Nc1ccccc1[As]1SCCCS1 | > 10 µM | > 10 µM | 8.47 µM | 1.64 µM
3 | NCCCCCC(=O)Nc1ccc([As]2SCCCS2)cc1 | > 10 µM | > 10 µM | 5.36 µM | 1.25 µM
